We go through 5 compounds from US6495591B1, “Fungal efflux pump inhibitors” (Essential Therapeutics, Inc., priority 1997, dated 2002).

Some results are limits rather than exact numbers.

Holding throughout (assay type): cell-based
Test [1] has as its system YEM 17 C. glabrata, CgCDR up. To be noted: 24 hrs, 80% inhibition; for MIC of compound in the presence of fluconazole (+): 1/8 × MIC of fluconazole.
The subject of test [2] is YEM 13 C. albicans BEN up. In words: microbe, parasite or virus in culture. To be noted: YEM 13, 24 hrs, 80% inhibition; for MIC of compound in the presence of fluconazole (+): 1/8 × MIC of fluconazole.
Test [3] deals with YEM 27 C. albicans ΔCDR1ΔCDR2 ΔBENΔFLU1. In words: microbe, parasite or virus in culture. To be noted: YEM 27, 24 hrs, 80% inhibition; for MIC of compound in the presence of fluconazole (+): 1/8 × MIC of fluconazole.
For test [4], the system named is YEM 53 C. krusei. Kind of test: FEPI MIC with/without 1/8 fluconazole MIC at 24 hrs (Table 11). The following applies: YEM 53, 24 hrs, 80% inhibition; for MIC of compound in the presence of fluconazole (+): 1/8 × MIC of fluconazole.
The subject of test [5] is YEM 24 C. albicans ΔCDR1, ΔCDR2. Kind of test: microbe, parasite or virus in culture. The following applies: YEM 24, 24 hrs, 80% inhibition; for MIC of compound in the presence of fluconazole (+): 1/8 × MIC of fluconazole.
Test [6] has as its system YEM 51 C. glabrata wt. In words: FEPI MIC with/without 1/8 fluconazole MIC at 24 hrs (Table 11). To be noted: YEM 51, 24 hrs, 80% inhibition; for MIC of compound in the presence of fluconazole (+): 1/8 × MIC of fluconazole.
Test [7] relates to Aspergillus fumigatus. In words: FEPI MICs in combination with 1/4 the azole's MIC (Table 12). Set-up: FEPI MIC (alone): unit not given here. To be noted: for FEPI MIC with fluconazole, 60% Inh / FEPI MIC with fluconazole, 80% Inh: fluconazole 32 μg/ml (1/4 MIC); for FEPI MIC with fluconazole, 60% Inh / FEPI MIC with itraconazole, 60% Inh / FEPI MIC with ketoconazole, 60% Inh: 60% inhibition; for FEPI MIC with fluconazole, 80% Inh / FEPI MIC with itraconazole, 80% Inh / FEPI MIC with ketoconazole, 80% Inh / FEPI MIC (alone): 80% inhibition; for FEPI MIC with itraconazole, 60% Inh / FEPI MIC with itraconazole, 80% Inh: itraconazole 0.063 μg/ml (1/4 MIC); for FEPI MIC with ketoconazole, 60% Inh / FEPI MIC with ketoconazole, 80% Inh: ketoconazole 4 μg/ml (1/4 MIC); for FEPI MIC (alone): no azole, 35° C., CM Broth. How it is done:
The combinations were tested against a series of Candida strain with known expression of efflux pumps or with complete deletion of all known pumps and Aspergillus fumigatus. Results are reported as minimum inhibitory concentration (MIC) of […] in the presence or absence of […]. A total of 27 distinct milbemycins were studied.

Test [8] deals with YEM 15 C. albicans, CDR1CDR2 up. Kind of test: microbe, parasite or virus in culture. The following applies: YEM 15, 24 hrs, 80% inhibition; for MIC of compound in the presence of fluconazole (+): 1/8 × MIC of fluconazole.
In test [9] the test system is YEM 30 C. albicans wt. In words: FEPI MIC with/without 1/8 fluconazole MIC at 24 hrs (Table 11). To be noted: YEM 30, 24 hrs, 80% inhibition; for MIC of compound in the presence of fluconazole (+): 1/8 × MIC of fluconazole.

Consider `CCC(C)C1OC2(CC3CC(CC=C(C)C(OC4CC(OC)C(O)C(C)O4)C(C)C=CC=C4COC5C(O)C(C)=CC(C(=O)O3)C45O)O2)CC(O)C1C` (stereo not shown) [Compound 23, Avermectin B2a monoglycoside], for which, in test [1], the MIC of compound in the presence of fluconazole (+) is more than 64 µg/mL and the MIC of compound in the absence of fluconazole (−) is more than 64 µg/mL. Also, in [2], the MIC of compound in the presence of fluconazole (+) is more than 64 µg/mL and the MIC of compound in the absence of fluconazole (−) was more than 64 µg/mL. In addition, in test [3], the MIC of compound in the presence of fluconazole (+) is more than 64 µg/mL and the MIC of compound in the absence of fluconazole (−) is more than 64 µg/mL. In test [4], the MIC of compound in the presence of fluconazole (+) is more than 64 µg/mL and the MIC of compound in the absence of fluconazole (−) is more than 64 µg/mL. Also, in test [5], the MIC of compound in the presence of fluconazole (+) is more than 64 µg/mL and the MIC of compound in the absence of fluconazole (−) was more than 64 µg/mL. In addition, in [6], the MIC of compound in the presence of fluconazole (+) was more than 64 µg/mL and the MIC of compound in the absence of fluconazole (−) is more than 64 µg/mL. In [7], the “FEPI MIC with fluconazole, 60% Inh” value is reported as more than 64; the “FEPI MIC with fluconazole, 80% Inh” value was more than 64; the “FEPI MIC with itraconazole, 60% Inh” value came to 64; the “FEPI MIC with itraconazole, 80% Inh” value is more than 64. For the same compound, in test [7], the “FEPI MIC with ketoconazole, 60% Inh” value is “≦0.063”; the “FEPI MIC with ketoconazole, 80% Inh” value is listed as 8; the “FEPI MIC (alone)” value is reported as more than 64. In test [8], the MIC of compound in the presence of fluconazole (+) was found to be 64 µg/mL and the MIC of compound in the absence of fluconazole (−) was more than 64 µg/mL. In test [9], the “MIC of compound in the presence of fluconazole (+)” value (shortened to “MIC of compound … (+)”) is listed as “≦0.03” and the MIC of compound in the absence of fluconazole (−) was more than 64 µg/mL.

As for `C/C1=C\C[C@@H]2C[C@@H](C[C@]3(CC[C@H](C)[C@@H](C)O3)O2)OC(=O)[C@@H]2C=C(COC(=O)Cc3ccccc3)[C@@H](O)[C@H]3OC/C(=C\C=C\[C@H](C)C1)[C@]32O` [Compound 25, 4a-O-phenylacetyl milbemycin α1], the MIC of compound in the presence of fluconazole (+) is 2 µg/mL in test [1]; more than 64 µg/mL in test [2]; more than 64 µg/mL in test [3]; 0.06 µg/mL in test [4]; more than 64 µg/mL in [5]; 4 µg/mL in test [6]. Also, the “MIC of compound … (+)” value in test [8] and in test [9] was “≦0.03” in each case. The MIC of compound in the absence of fluconazole (−) in [1], in test [2], in [3], in test [4], in test [5] and in test [6] was more than 64 µg/mL in each case. Also, the MIC of compound in the absence of fluconazole (−) in test [8] and in [9] was more than 64 µg/mL each time. In test [7], the “FEPI MIC with fluconazole, 60% Inh” value turned out to be 1. Further, the “FEPI MIC with fluconazole, 80% Inh” value in test [7] was 2. Besides, in test [7], the “FEPI MIC with itraconazole, 60% Inh” value was 0.5. Further, the “FEPI MIC with itraconazole, 80% Inh” value in test [7] is more than 64. Besides, the “FEPI MIC with ketoconazole, 60% Inh” value in test [7] is “≦0.063”. The “FEPI MIC with ketoconazole, 80% Inh” value in [7] was 0.25. Besides, the “FEPI MIC (alone)” value in [7] is given as more than 64.

Regarding `CCCCC(C)C(=O)OC1C(C)C(CC)OC2(CC3CC(CC=C(C)CC(C)C=CC=C4COC5C(O)C(C)=CC(C(=O)O3)C45O)O2)C1O` (stereo not drawn) [Compound 10, Milbemycin α7], the MIC of compound in the presence of fluconazole (+) was 1 µg/mL in [1]; more than 64 µg/mL in test [2]; more than 64 µg/mL in [3]; more than 64 µg/mL in test [4]; more than 64 µg/mL in [5]; 2 µg/mL in [6]. Also, the “MIC of compound … (+)” value in test [8] and in [9] was “≦0.03” each time. In addition, the MIC of compound in the absence of fluconazole (−) in [1], in [2], in [3], in [4], in test [5] and in [6] was more than 64 µg/mL throughout. The MIC of compound in the absence of fluconazole (−) in test [8] and in test [9] was more than 64 µg/mL in each case. The “FEPI MIC with fluconazole, 60% Inh” value in [7] was 0.25. Besides, the “FEPI MIC with fluconazole, 80% Inh” value in test [7] is 4. The “FEPI MIC with itraconazole, 60% Inh” value in [7] is 1. In addition, the “FEPI MIC with itraconazole, 80% Inh” value in test [7] is on record as 8. Also, in test [7], the “FEPI MIC with ketoconazole, 60% Inh” value amounted to 0.25. Also, the “FEPI MIC with ketoconazole, 80% Inh” value in [7] was 0.25. In addition, the “FEPI MIC (alone)” value in test [7] was more than 64.

Turning to `C/C1=C\C[C@@H]2CC(C[C@]3(CC[C@H](C)[C@@H](C)O3)O2)OC(=O)c2cc(C)c(O)cc2/C(C)=C/C=C/[C@H](C)C1` [Compound 13, Milbemycin β3], in [1], the MIC of compound in the presence of fluconazole (+) was 64 µg/mL and the MIC of compound in the absence of fluconazole (−) is more than 64 µg/mL. Also, in test [2], the MIC of compound in the presence of fluconazole (+) came to 64 µg/mL and the MIC of compound in the absence of fluconazole (−) is more than 64 µg/mL. Also, in test [3], the MIC of compound in the presence of fluconazole (+) is more than 64 µg/mL and the MIC of compound in the absence of fluconazole (−) is more than 64 µg/mL. In test [4], the MIC of compound in the presence of fluconazole (+) is more than 64 µg/mL and the MIC of compound in the absence of fluconazole (−) was more than 64 µg/mL. Further, in test [5], the MIC of compound in the presence of fluconazole (+) is more than 64 µg/mL and the MIC of compound in the absence of fluconazole (−) was more than 64 µg/mL. Further, in test [6], the MIC of compound in the presence of fluconazole (+) was more than 64 µg/mL and the MIC of compound in the absence of fluconazole (−) is more than 64 µg/mL. Moreover, in test [7], the “FEPI MIC with fluconazole, 60% Inh” value is 32; the “FEPI MIC with fluconazole, 80% Inh” value is given as more than 64; the “FEPI MIC with itraconazole, 60% Inh” value turned out to be 64; the “FEPI MIC with itraconazole, 80% Inh” value is given as more than 64. Also, in [7], the “FEPI MIC with ketoconazole, 60% Inh” value came out at 0.5; the “FEPI MIC with ketoconazole, 80% Inh” value worked out at 0.5; the “FEPI MIC (alone)” value is more than 64. Besides, in test [8], the MIC of compound in the presence of fluconazole (+) was found to be 8 µg/mL and the MIC of compound in the absence of fluconazole (−) is more than 64 µg/mL. Further, in [9], the MIC of compound in the presence of fluconazole (+) was 0.125 µg/mL and the MIC of compound in the absence of fluconazole (−) is more than 64 µg/mL.

As for `C/C1=C\C[C@@H]2C[C@@H](C[C@]3(CC[C@H](C)[C@@H](C)O3)O2)OC(=O)[C@@H]2C=C(COC(=O)C(C)C)[C@@H](O)[C@H]3OC/C(=C\C=C\[C@H](C)C1)[C@]32O` [Compound 20, 4a-O-isobutyryl milbemycin α1], in test [1], the MIC of compound in the presence of fluconazole (+) was 4 µg/mL and the MIC of compound in the absence of fluconazole (−) was more than 64 µg/mL. In test [2], the MIC of compound in the presence of fluconazole (+) was 64 µg/mL and the MIC of compound in the absence of fluconazole (−) was more than 64 µg/mL. In [3], the MIC of compound in the presence of fluconazole (+) was determined as 64 µg/mL and the MIC of compound in the absence of fluconazole (−) is more than 64 µg/mL. For the same compound, in test [4], the MIC of compound in the presence of fluconazole (+) was 4 µg/mL and the MIC of compound in the absence of fluconazole (−) is more than 64 µg/mL. Further, in test [5], the MIC of compound in the presence of fluconazole (+) is more than 64 µg/mL and the MIC of compound in the absence of fluconazole (−) was more than 64 µg/mL. In test [6], the MIC of compound in the presence of fluconazole (+) was determined as 2 µg/mL and the MIC of compound in the absence of fluconazole (−) was more than 64 µg/mL. In [7], the “FEPI MIC with fluconazole, 60% Inh” value worked out at 2; the “FEPI MIC with fluconazole, 80% Inh” value came to 4; the “FEPI MIC with itraconazole, 60% Inh” value is on record as 0.25; the “FEPI MIC with itraconazole, 80% Inh” value stood at 8. Also, in test [7], the “FEPI MIC with ketoconazole, 60% Inh” value is recorded as “≦0.063”; the “FEPI MIC with ketoconazole, 80% Inh” value is “≦0.063”; the “FEPI MIC (alone)” value came to 64. In addition, in test [8], the “MIC of compound … (+)” value is given as “≦0.03” and the MIC of compound in the absence of fluconazole (−) was more than 64 µg/mL. In test [9], the “MIC of compound … (+)” value is “≦0.06” and the MIC of compound in the absence of fluconazole (−) is more than 64 µg/mL.
